Data reported in ChEMBL document CHEMBL4028801, “A multifactorial approach to hepatobiliary transporter assessment enables improved therapeutic compound development” (Toxicol Sci, 2013).
One block for each compound: values may come before it.

Experiments:
Bile salt export pump = Bile salt export pump (Homo sapiens, UniProt O95342); experiment: Inhibition of human BSEP overexpressed in Sf9 cell membrane vesicles assessed as uptake of [3H]-taurocholate in presence of ATP measured after 15 to 20 mins by membrane vesicle transport assay; assay type: ADME, cell-based
[1] = target: ATP-binding cassette sub-family C member 2 (Homo sapiens, UniProt Q92887); experiment: Inhibition of human MRP2 overexpressed in Sf9 cell membrane vesicles assessed as uptake of [3H]-estradiol-17beta-D-glucuronide in presence of ATP and GSH measured after 20 mins by membrane vesicle transport assay
[2] = target: ATP-binding cassette sub-family C member 3 (Homo sapiens, UniProt O15438); experiment: Inhibition of human MRP3 overexpressed in Sf9 insect cell membrane vesicles assessed as uptake of [3H]-estradiol-17beta-D-glucuronide in presence of ATP and GSH measured after 10 mins by membrane vesicle transport assay; assay type: ADME, cell-based
[3] = target: T1, ATP-binding cassette sub-family C member 4 (Homo sapiens, UniProt O15439); experiment: Inhibition of human MRP4 overexpressed in Sf9 cell membrane vesicles assessed as uptake of [3H]-estradiol-17beta-D-glucuronide in presence of ATP and GSH measured after 20 mins by membrane vesicle transport assay; assay type: ADME, cell-based
T1 sequence (O15439 whole entry): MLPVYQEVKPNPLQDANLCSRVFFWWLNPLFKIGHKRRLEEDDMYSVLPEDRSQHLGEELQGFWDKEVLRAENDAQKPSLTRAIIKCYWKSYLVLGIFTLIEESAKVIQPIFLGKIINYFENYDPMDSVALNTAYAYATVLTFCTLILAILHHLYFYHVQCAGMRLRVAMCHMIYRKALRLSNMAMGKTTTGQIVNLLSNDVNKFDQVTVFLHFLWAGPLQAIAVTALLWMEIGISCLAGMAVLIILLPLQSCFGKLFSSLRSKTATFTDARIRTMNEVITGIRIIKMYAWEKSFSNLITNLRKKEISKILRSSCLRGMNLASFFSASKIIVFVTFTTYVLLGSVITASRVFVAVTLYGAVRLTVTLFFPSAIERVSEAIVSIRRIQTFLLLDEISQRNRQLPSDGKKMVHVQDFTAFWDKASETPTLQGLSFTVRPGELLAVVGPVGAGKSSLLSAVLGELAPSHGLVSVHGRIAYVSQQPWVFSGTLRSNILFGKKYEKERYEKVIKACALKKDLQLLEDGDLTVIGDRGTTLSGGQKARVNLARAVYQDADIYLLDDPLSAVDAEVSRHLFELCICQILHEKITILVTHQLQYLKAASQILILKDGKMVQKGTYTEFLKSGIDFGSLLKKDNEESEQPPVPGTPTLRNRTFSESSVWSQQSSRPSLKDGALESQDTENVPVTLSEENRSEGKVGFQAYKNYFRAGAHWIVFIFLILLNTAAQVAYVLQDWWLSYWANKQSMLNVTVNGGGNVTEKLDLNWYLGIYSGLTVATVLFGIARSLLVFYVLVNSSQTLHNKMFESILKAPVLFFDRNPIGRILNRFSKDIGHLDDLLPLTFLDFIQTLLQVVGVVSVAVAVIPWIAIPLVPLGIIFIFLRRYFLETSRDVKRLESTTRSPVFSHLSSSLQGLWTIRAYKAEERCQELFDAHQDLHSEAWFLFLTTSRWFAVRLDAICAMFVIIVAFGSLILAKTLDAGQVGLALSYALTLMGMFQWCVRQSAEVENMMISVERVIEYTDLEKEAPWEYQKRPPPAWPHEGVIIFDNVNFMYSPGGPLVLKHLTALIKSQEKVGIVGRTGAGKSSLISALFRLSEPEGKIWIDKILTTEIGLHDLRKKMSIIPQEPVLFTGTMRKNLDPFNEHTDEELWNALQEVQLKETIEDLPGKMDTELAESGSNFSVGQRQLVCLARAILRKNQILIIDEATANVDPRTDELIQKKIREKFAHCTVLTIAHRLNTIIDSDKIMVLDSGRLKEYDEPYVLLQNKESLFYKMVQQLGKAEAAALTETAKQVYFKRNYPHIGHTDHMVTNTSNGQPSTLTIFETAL

[4] = AUC (0 to 6 hrs) in human at 800 mg administered once per week for 6 weeks through intravesical instillation measured after 6 hrs; assay type: ADME; parameters: dose 800 mg, time < 6 hr; details: in vivo
[5] = Drug concentration at steady state in human at 800 mg administered once per week for 6 weeks through intravesical instillation measured after 6 hrs; assay type: ADME; details: in vivo, read-out: Css
[6] = Ratio of drug concentration at steady state in human at 800 mg administered once per week for 6 weeks through intravesical instillation measured after 6 hrs to IC50 for human BSEP overexpressed in Sf9 insect cells; assay type: ADME; details: in vivo, other
[7] = Ratio of drug concentration at steady state in human at 800 mg administered once per week for 6 weeks through intravesical instillation measured after 6 hrs to IC50 for human MRP2 overexpressed in Sf9 insect cells; assay type: ADME; details: in vivo, other
[8] = Ratio of drug concentration at steady state in human at 800 mg administered once per week for 6 weeks through intravesical instillation measured after 6 hrs to IC50 for human MRP3 overexpressed in Sf9 insect cells; assay type: ADME; details: in vivo, other
[9] = Ratio of drug concentration at steady state in human at 800 mg administered once per week for 6 weeks through intravesical instillation measured after 6 hrs to IC50 for human MRP4 overexpressed in Sf9 insect cells; assay type: ADME; details: in vivo, other
[10] = AUC in human at 25 to 50 mg, po QD after 24 hrs; assay type: ADME, organism-based; details: in vivo
[11] = Drug concentration at steady state in human at 25 to 50 mg, po QD after 24 hrs; assay type: ADME, organism-based; details: in vivo, read-out: Css
[12] = Ratio of drug concentration at steady state in human at 25 to 50 mg, po QD after 24 hrs to IC50 for human BSEP overexpressed in Sf9 insect cells; assay type: ADME, organism-based; details: in vivo
[13] = Ratio of drug concentration at steady state in human at 25 to 50 mg, po QD after 24 hrs to IC50 for human MRP4 overexpressed in Sf9 insect cells; assay type: ADME, organism-based; details: in vivo
[14] = AUC in human at 5 to 10 mg, po after 24 hrs; assay type: ADME, organism-based; details: in vivo
Homo sapiens = experiment: Drug concentration at steady state in human at 5 to 10 mg, po after 24 hrs; details: in vivo
[15] = Cmax in human at 100 to 300 mg, po QD after 24 hrs; assay type: ADME, organism-based; details: in vivo
[16] = Drug concentration at steady state in human at 100 to 300 mg, po QD after 24 hrs; assay type: ADME, organism-based; details: in vivo, read-out: Css
[17] = Ratio of drug concentration at steady state in human at 100 to 300 mg, po QD after 24 hrs to IC50 for human BSEP overexpressed in Sf9 insect cells; assay type: ADME, organism-based; details: in vivo
[18] = Ratio of drug concentration at steady state in human at 100 to 300 mg, po QD after 24 hrs to IC50 for human MRP2 overexpressed in Sf9 insect cells; assay type: ADME, organism-based; details: in vivo
[19] = Ratio of drug concentration at steady state in human at 100 to 300 mg, po QD after 24 hrs to IC50 for human MRP3 overexpressed in Sf9 insect cells; assay type: ADME, organism-based; details: in vivo
[20] = Ratio of drug concentration at steady state in human at 100 to 300 mg, po QD after 24 hrs to IC50 for human MRP4 overexpressed in Sf9 insect cells; assay type: ADME, organism-based; details: in vivo
[21] = AUC in human at 300 to 900 mg, po QD after 24 hrs; assay type: ADME, organism-based; details: in vivo
[22] = Drug concentration at steady state in human at 300 to 900 mg, po QD after 24 hrs; assay type: ADME, organism-based; details: in vivo, read-out: Css
[23] = Ratio of drug concentration at steady state in human at 300 to 900 mg, po QD after 24 hrs to IC50 for human BSEP overexpressed in Sf9 insect cells; assay type: ADME, organism-based; details: in vivo
[24] = Ratio of drug concentration at steady state in human at 300 to 900 mg, po QD after 24 hrs to IC50 for human MRP2 overexpressed in Sf9 insect cells; assay type: ADME, organism-based; details: in vivo
[25] = Ratio of drug concentration at steady state in human at 300 to 900 mg, po QD after 24 hrs to IC50 for human MRP4 overexpressed in Sf9 insect cells; assay type: ADME, organism-based; details: in vivo

Sequence of ATP-binding cassette sub-family C member 2 (Q92887 whole entry): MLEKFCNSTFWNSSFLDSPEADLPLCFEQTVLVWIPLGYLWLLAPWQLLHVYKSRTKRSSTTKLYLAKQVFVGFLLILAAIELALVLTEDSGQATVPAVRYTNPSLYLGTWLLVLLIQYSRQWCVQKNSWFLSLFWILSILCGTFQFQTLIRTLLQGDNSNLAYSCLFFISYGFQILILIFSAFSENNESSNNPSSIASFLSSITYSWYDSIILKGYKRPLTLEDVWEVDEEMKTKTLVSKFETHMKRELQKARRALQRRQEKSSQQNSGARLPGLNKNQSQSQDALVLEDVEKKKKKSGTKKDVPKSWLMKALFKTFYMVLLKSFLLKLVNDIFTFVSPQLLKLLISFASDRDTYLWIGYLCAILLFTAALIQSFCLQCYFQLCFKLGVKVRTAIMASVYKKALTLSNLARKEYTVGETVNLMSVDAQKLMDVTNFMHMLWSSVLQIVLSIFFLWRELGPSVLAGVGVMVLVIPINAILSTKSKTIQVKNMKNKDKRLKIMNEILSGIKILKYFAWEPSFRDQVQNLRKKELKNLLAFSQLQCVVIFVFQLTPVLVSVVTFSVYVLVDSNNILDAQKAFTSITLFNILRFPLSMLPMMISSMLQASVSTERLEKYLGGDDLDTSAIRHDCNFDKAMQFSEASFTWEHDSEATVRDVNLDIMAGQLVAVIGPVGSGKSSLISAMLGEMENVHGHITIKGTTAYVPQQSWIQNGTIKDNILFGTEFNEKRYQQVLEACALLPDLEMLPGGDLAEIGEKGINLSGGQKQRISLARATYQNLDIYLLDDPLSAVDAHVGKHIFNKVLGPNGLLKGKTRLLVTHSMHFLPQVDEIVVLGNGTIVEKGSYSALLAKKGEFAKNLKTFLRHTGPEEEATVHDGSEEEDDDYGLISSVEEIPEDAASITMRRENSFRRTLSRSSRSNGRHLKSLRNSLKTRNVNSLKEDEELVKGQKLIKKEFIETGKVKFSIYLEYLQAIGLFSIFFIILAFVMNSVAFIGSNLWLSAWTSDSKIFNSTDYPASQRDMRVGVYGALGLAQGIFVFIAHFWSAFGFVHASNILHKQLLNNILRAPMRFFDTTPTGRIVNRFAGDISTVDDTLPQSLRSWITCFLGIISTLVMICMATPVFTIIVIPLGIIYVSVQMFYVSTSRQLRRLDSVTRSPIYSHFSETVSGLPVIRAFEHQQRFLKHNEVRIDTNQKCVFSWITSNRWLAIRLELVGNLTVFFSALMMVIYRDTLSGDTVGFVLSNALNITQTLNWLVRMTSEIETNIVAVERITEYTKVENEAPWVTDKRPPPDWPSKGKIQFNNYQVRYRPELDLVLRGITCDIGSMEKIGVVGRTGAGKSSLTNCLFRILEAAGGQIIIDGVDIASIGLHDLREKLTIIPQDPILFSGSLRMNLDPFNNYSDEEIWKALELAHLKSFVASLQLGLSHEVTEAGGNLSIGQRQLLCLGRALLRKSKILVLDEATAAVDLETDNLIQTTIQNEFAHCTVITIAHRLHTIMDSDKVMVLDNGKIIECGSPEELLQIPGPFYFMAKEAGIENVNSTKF
Sequence of ATP-binding cassette sub-family C member 3 (O15438 whole entry): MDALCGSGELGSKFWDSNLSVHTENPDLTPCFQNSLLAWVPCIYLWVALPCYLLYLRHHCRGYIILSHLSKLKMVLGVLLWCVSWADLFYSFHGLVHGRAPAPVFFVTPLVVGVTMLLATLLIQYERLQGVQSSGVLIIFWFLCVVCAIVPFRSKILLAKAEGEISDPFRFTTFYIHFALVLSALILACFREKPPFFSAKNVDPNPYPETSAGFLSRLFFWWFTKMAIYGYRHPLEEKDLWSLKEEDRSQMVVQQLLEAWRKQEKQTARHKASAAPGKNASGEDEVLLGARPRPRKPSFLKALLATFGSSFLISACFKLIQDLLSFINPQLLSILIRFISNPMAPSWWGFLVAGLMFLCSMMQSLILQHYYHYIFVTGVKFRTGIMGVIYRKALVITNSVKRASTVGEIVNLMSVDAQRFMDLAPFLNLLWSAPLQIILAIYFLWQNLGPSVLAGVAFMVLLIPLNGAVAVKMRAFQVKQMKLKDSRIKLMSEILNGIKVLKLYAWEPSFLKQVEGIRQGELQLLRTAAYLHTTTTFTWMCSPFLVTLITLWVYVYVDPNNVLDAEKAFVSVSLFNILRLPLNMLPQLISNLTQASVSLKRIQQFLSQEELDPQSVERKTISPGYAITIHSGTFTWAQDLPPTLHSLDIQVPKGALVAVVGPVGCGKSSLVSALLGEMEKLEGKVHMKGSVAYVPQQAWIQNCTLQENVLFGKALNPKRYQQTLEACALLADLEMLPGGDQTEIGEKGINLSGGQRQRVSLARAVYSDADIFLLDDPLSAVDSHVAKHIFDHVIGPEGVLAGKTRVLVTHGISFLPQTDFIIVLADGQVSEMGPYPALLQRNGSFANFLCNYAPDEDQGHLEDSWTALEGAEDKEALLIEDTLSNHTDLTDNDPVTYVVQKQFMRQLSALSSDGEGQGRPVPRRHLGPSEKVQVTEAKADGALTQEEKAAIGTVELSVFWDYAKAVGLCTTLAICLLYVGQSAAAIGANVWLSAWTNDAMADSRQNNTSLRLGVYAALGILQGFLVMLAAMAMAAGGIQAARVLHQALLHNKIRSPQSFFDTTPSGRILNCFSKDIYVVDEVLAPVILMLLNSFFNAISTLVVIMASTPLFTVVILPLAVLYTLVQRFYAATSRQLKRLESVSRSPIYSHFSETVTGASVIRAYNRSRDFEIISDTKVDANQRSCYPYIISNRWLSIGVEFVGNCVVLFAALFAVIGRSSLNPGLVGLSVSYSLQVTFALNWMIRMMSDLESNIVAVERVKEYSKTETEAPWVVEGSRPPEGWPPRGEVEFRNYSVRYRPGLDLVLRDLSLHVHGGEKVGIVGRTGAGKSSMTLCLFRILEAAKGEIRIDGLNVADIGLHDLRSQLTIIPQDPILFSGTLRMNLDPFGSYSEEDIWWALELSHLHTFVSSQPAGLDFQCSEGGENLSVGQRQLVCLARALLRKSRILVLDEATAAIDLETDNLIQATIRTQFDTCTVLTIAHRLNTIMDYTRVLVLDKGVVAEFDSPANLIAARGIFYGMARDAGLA
Sequence of Bile salt export pump (O95342 whole entry): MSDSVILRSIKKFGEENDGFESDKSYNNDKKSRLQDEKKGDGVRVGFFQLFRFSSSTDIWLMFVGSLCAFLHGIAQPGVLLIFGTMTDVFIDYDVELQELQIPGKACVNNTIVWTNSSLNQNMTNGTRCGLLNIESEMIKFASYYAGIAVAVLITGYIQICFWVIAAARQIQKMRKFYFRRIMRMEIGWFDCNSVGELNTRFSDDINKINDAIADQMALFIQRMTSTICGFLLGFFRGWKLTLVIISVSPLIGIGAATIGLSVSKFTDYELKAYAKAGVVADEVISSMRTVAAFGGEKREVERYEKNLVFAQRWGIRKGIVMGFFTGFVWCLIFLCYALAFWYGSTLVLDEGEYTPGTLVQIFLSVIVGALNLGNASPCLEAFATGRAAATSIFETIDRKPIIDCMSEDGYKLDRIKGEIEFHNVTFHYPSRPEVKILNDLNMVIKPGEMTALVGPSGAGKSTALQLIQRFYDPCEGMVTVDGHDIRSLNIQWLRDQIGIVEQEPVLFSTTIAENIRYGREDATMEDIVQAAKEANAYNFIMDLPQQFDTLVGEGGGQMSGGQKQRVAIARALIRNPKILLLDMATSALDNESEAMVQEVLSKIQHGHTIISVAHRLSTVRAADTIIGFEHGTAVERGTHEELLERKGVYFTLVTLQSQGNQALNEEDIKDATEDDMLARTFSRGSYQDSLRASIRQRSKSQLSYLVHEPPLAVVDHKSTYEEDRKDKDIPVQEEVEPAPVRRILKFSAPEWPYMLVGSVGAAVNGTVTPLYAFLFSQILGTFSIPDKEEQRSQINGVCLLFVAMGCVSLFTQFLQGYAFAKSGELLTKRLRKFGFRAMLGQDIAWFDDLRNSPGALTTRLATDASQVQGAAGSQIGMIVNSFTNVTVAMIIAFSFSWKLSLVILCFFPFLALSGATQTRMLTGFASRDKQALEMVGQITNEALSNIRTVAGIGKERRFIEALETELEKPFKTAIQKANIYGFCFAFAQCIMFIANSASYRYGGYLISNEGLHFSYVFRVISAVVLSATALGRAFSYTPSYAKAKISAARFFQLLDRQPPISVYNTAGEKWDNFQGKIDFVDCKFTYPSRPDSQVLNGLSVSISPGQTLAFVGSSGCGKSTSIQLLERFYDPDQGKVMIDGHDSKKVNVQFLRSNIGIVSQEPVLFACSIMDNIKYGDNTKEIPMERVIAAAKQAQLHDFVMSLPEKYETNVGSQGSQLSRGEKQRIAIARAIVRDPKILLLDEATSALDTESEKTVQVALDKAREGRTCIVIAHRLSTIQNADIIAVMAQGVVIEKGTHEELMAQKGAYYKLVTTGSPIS

IC50 [1]: 64 µM
IC50 [2]: 76.3 µM
IC50 [3]: 36.8 µM
AUC at 6 h [4]: 0.788 µM·h
concentration at 6 h [5]: 131 nM
Ratio [7]: 0.002
Ratio [8]: 0.002
Ratio [9]: 0.004
Structure (SMILES): CCCCC(=O)OCC(=O)[C@]1(O)Cc2c(O)c3c(c(O)c2[C@@H](O[C@H]2C[C@H](NC(=O)C(F)(F)F)[C@H](O)[C@H](C)O2)C1)C(=O)c1c(OC)cccc1C3=O [VALRUBICIN]
IC50 (Bile salt export pump): 24.1 µM
Ratio [6]: 0.005

IC50 [2]: > 133 µM
IC50 [3]: 49 µM
AUC at 24 h [10]: 6.13 µM·h
concentration at 24 h [11]: 255 nM
Ratio [13]: 0.005
Structure (SMILES): COc1cc(C)c(/C=C/C(C)=C/C=C/C(C)=C/C(=O)O)c(C)c1C [ACITRETIN]
IC50 (Bile salt export pump): 38.2 µM
Ratio [12]: 0.007

Structure (SMILES): COc1cc2c(cc1OC)C(=O)C(CC1CCN(Cc3ccccc3)CC1)C2 (centres undefined) [DONEPEZIL]
IC50 [1]: > 133 µM
IC50 [2]: > 133 µM
IC50 [3]: 72.9 µM
AUC at 24 h [14]: 9.76 µM·h
Css (Homo sapiens): 406 nM

IC50 [1]: 10.4 µM
IC50 [2]: 21 µM
IC50 [3]: 44.5 µM
Cmax [15]: 2.11 ng/mL
concentration at 24 h [16]: 88 nM
Ratio [18]: 0.008
Ratio [19]: 0.004
Ratio [20]: 0.002
Structure (SMILES): CC(C)/N=c1\cc2n(-c3ccc(Cl)cc3)c3ccccc3nc-2cc1Nc1ccc(Cl)cc1 [CLOFAZIMINE]
Ratio [17]: 0.007

IC50 [1]: 49.8 µM
IC50 [2]: > 133 µM
IC50 [3]: 15.9 µM
AUC at 24 h [21]: 2.43 µM·h
concentration at 24 h [22]: 101 nM
Ratio [24]: 0.002
Ratio [25]: 0.006
Structure (SMILES): CO[C@H]1/C=C/O[C@@]2(C)Oc3c(C)c(O)c4c(c3C2=O)C2=NC3(CCN(CC(C)C)CC3)NC2=C(NC(=O)/C(C)=C\C=C\[C@H](C)[C@H](O)[C@@H](C)[C@@H](O)[C@@H](C)[C@H](OC(C)=O)[C@@H]1C)C4=O [RIFABUTIN]
Ratio [23]: 0.004
